In patent US6387241B1, “Method of sterilization using ozone” (priority 1993, dated 2002):
Read-outs that look alike come from different tables or passages of the source.

System: spores of Bacillus stearothermophilus and Bacillus subtilis var. niger (Duo-Spore paper spore strips)

For `O=[O+][O-]` [ozone], the “ozone exposure time to achieve overkill (100% of the spore strips sterilized)” value ("flow through" mode, about 2 liters per minute, 10-12 wt% ozone) was 60 min, the “ozone exposure time to achieve overkill (100% of the spore strips sterilized)” value ("pressure" mode, generator output 10-12 wt% ozone) was 45 min and the “ozone exposure time to achieve overkill (100% of the spore strips sterilized)” value ("single fill" mode, static 10 wt% ozone) was 90 min.
